Reference: patent US10471080B2, “Use of trehalose for prevention of neural tube defects” (UNIVERSITY OF MARYLAND, BALTIMORE, priority 2012, dated 2019)

Columns and labels:
[1] = test system: embryonic neuroepithelial cells; experiment: GFP-LC3 puncta analysis in GFP-LC3 transgenic mice; type: in vivo, mouse
Procedure: GFP-LC3 puncta analysis. GFP-LC3 transgenic (Tg) mice were used to quantify autophagy in vivo. E8.75 embryos were gathered, fixed in 4% paraformaldehyde (PFA) in PBS for 30 min at 4° C., quickly frozen, and cryosectioned at […] GFP florescent images in embryonic neuroepithelial cells were recorded by confocal microscopy using a laser scanning microscope (LSM 510 META, ZEISS). GFP-LC3 punctate foci with a diameter greater than or equal to 20 pixels in each cell were calculated by Image J software according to the manufacturer's manual.

neuroepithelial cells = experiment: Electron microscopy of autophagosomes and mitochondria in E8.75 neuroepithelia; type: in vivo, mouse
From the text: Electron microscopy. The structures of autophagosome and mitochondria were examined by transmission electron microscopy (EM) in the University of Maryland EM core facility. Thick sections (1 μm) were cut and visualized at ×100 magnifications to identify the neuroepithelia of E8.75 embryos. Thin sections (80 nm) of identified neuroepithelia were cut and viewed with an electron microscope (Joel JEM-1200EX; Tokyo, Japan) under high-power resolution (10, 12 and 25 K) for identification of cellular organelle structures.

LC3-II [2] = experiment: LC3-II levels in E8.75 embryos; type: in vivo, mouse; details: E8.75 embryos of diabetic dams
[3] = test system: ER stress and JNK1/2 activation; experiment: ER stress markers and JNK1/2 activation in E8.75 embryos; type: in vivo, mouse; details: diabetic group with 5% trehalose
[4] = test system: maternal diabetes-induced NTDs; experiment: In vivo mouse model of diabetic embryopathy, morphologic assessment of NTDs at E11.5
Procedure: In vivo mouse model of diabetic embryopathy and morphologic assessment of NTDs. The mouse model of diabetic embryopathy was previously described (21, 22). Briefly, female mice were intravenously (i.v.) injected daily with 75 mg/kg streptozotocin (STZ) over two days to induce diabetes. Nondiabetic WT with vehicle injection served as controls. Diabetes was defined as 12-hour fasting blood glucose levels ≥250 mg/dl, which normally occurred at 3-5 days after STZ injections. There is no residual toxic effect caused by STZ in this animal model. Embryos were gathered at E8.75 (2:00 PM at E8.5) for analysis and at E11.5 from NTD examination.
(§1) Trehalose treatment and trehalose measurement. Concentrations of either 2% or 5% (gram/volume [ml]) trehalose (Cat#: T9531, Sigma) were given to WT nondiabetic and diabetic pregnant mice at E5.5 in drinking water. Trehalose levels in maternal serum and embryos were determined by the Trehalose Kit from Megazyme (Wicklow, Ireland).
Statistical analyses. Statistical differences were determined by Student's t-test for two group comparisons and One way ANOVA for more than two groups comparisons using SigmaStat 3.5 software. In ANOVA analysis, Tukey-test was used to estimate the significance of the results. Significant difference between groups in NTD incidence was analyzed by Chi-square test.

[5] = test system: ULK1, Beclin 1, Atg3, Atg5, Ambra1, p62, Dap; experiment: Autophagy-related gene expression in E8.75 embryos; type: in vivo, mouse; details: diabetic group
autophagy = details: in vitro; cited from earlier work
[6] = Trehalose measurement in maternal serum and embryos (Trehalose Kit, Megazyme); type: in vivo, mouse; details: diabetic dams
Procedure: as §1

[7] = test system: neurogenesis in the developing neural tube; experiment: Immunofluorescent staining of TuJ1 and Sox1 in developing neural tubes (neurogenesis); type: in vivo, mouse; details: neural tubes exposed to diabetes
Procedure: Immunofluorescent staining. […] Deparaffinized sections were incubated with TuJ 1 antibody (Covance, #MMS-435P) at 1:400 dilution or Sox1 antibody (Cell Signaling, #4194) at 1:100 dilution in PBS with 10% heat-inactivated donkey serum overnight at 4° C. After washes in PBS, sections were incubated with secondary antibodies, Alexa Fluor® 488 Donkey Anti-Mouse IgG to TuJ1, and Alexa Fluor® 594 Donkey Anti-Rabbit IgG to Sox1. Cell nuclei were stained with DAPI (Blue). Immunofluorescent staining was examined by immunofluorescence microscopy. In order to visualize neurogenesis throughout the anterior neural tube, serial sections through the entire anterior neural tube were analyzed and representative images were shown. The earliest neurogenesis site was found at the boundary of midbrain and hindbrain. Five embryos from five dams per group were analyzed.

[8] = test system: 4-HNE, MDA, nitrotyrosine or ubiquitin-modified proteins; experiment: Levels of oxidized and ubiquitin-modified (dysfunctional) proteins in E8.75 embryos; type: in vivo, mouse; details: diabetic group with 5% trehalose
[9] = test system: neuroepithelial cell apoptosis; experiment: Pro-apoptotic Bcl-2 members, caspase cleavage and TUNEL assay in E8.75 embryos; type: in vivo, mouse; details: diabetic group with 5% trehalose
Procedure: TUNEL assay. TUNEL assay was performed as previously described (21, 22). Briefly, 5-μm serial coronal sections through the forebrain-midbrain (FB-MB) boundary of the anterior neural tube were fixed with 4% PFA in PBS and incubated with TUNEL reaction agents. Closure at the FB-MB boundary is an essential step for closure of the anterior neural tube, and failed closure in this area results in exencephaly (2, 8). TUNEL-positive cells were counted in the neural tube area of each section. Based on the counting of total cell nuclei, the sizes of the neural tube areas of each section were relatively constant. Thus, apoptotic cell numbers were expressed as total TUNEL-positive cells per neural tube area. TUNEL assays were performed without the observer knowing the experimental group of the embryo examined.

NTDs = details: cited from earlier work
LC3-II [10] = experiment: LC3-II levels in cultured E8 embryos under high glucose with or without Chloroquine; details: high glucose 250 mg/dl, 25 μmol/L Chloroquine

For `OC[C@H]1O[C@H](O[C@H]2O[C@H](CO)[C@@H](O)[C@H](O)[C@H]2O)[C@H](O)[C@@H](O)[C@@H]1O` [trehalose], the “number of autophagic GFP-LC3 puncta in neuroepithelial cells” value ([1]; diabetic group treated with trehalose, E8.75) was “restored to the level of that observed in the nondiabetic groups”, the “basal autophagy activities in neuroepithelial cells” value ([1]; nondiabetic group) was “did not affect basal autophagy activities” and the “number of defective mitochondria” value (neuroepithelial cells; diabetic conditions, E8.75 neuroepithelia) was “significantly reduced the number of defective mitochondria to a level comparable to that in the nondiabetic control group”. The “autophagosome formation in neuroepithelial cells” value (neuroepithelial cells; diabetic group, E8.75) was “blocked maternal diabetes-repressed autophagosome formation”, the LC3-II expression (LC3-II [2]) was “restored maternal diabetes-diminished LC3-II expression” and the “JNK1/2 activation and downstream effector c-Jun” value [3] was “completely abolished maternal diabetes-induced JNK1/2 activation”. The “XBP1 mRNA splicing” value [3] was “diminished XBP1 mRNA splicing”, the “expression or phosphorylation of ER chaperone proteins BiP, CHOP, eIF2α” value [3] was “abrogated maternal diabetes-increased expression or phosphorylation” and the “expression of 7 ER chaperone genes” value ([3]; mRNA) was “abolished”. For the same compound, the “maternal diabetes-induced NTDs” value ([4]; 2% trehalose, diabetic dams, lesser extent than 5%) was “significantly reduced maternal diabetes-induced NTDs”, the NTD rate ([4]; Diabetic + 2% trehalose in drinking water from E5.5, E11.5, total NTD embryos/total embryos) was 9.8% and the “Resorption Rates” value ([4]; Diabetic + 2% trehalose, E11.5) was 4.7. For the same compound, the “Total NTD Embryos” value ([4]; Diabetic + 2% trehalose, E11.5, of 41 total embryos) was 4, the NTD rate ([4]; Nondiabetic + 2% trehalose in drinking water from E5.5, E11.5, total NTD embryos/total embryos) was 0% and the “Resorption Rates” value ([4]; Nondiabetic + 2% trehalose, E11.5) was 4.8. The “Total NTD Embryos” value ([4]; Nondiabetic + 2% trehalose, E11.5, of 29 total embryos) was 0, the NTD rate ([4]; embryos from diabetic dams treated with 5% trehalose water (weight/volume), calculated by litters) was 4.0±2.2% and the NTD rate ([4]; embryos from nondiabetic dams with or without trehalose treatment) was 0.0±0.0%. For the same compound, the Resorption Rates ([4]; nondiabetic and diabetic dams with or without trehalose treatments) was “did not differ”, the “expression of ULK1, Beclin 1, Atg3, Atg5, and Ambra1” value [5] was “blocked the downregulation” and the “expression of p62 and Dap” value [5] was “blocked”. For the same compound, the autophagy stimulating activities (autophagy) was “possess autophagy stimulating activities in vitro”, the embryonic trehalose levels ([6]; 2% group) was 15.8±1.0 μg/g tissue and the “trehalose in maternal blood” value ([6]; 2% trehalose in drinking water) was 162.0 ± 16.9 µg/mL. The embryonic trehalose levels ([6]; 5% group) was 53.9±3.7 μg/g tissue, the “trehalose in maternal blood” value ([6]; 5% trehalose in drinking water) was 503.9 ± 19.3 µg/mL and the “differentiation of Sox1 positive neural progenitors” value [7] was “corrected maternal diabetes-blocked differentiation of Sox1 positive neural progenitors”. The “neurogenesis (TuJ1 expressing neurons)” value ([7]; E9.0 to E10.5) was “reversed delayed neurogenesis”, the “levels of 4-HNE, MDA, nitrotyrosine or ubiquitin-modified proteins” value [8] was “blocked maternal diabetes-increased levels of all of these modified proteins” and the BID cleavage [9] was “prevented”. For the same compound, the “caspase 3 and 8 cleavage” value [9] was “abolished maternal diabetes-induced caspase 3 and 8 cleavage”, the “level of phosphorylated Bad” value [9] was “restored” and the “neuroepithelial cell apoptosis (TUNEL)” value [9] was “blocked neuroepithelial cell apoptosis”.
For `O[C@H]1[C@H](O)[C@@H](O)[C@H](O)[C@@H](O)[C@H]1O` [inositol], the “folate-resistant NTDs” value (NTDs) is listed as “can prevent some of the folate-resistant NTDs”.
For `CCN(CC)CCCC(C)Nc1ccnc2cc(Cl)ccc12` (centres unmarked) [Chloroquine], the “high glucose-induced LC3-II reduction” value (LC3-II [10]) was “did not block high glucose-induced LC3-II reduction”.
